Source: patent US7973027B2, “Compound with antimalarial activity and antimalarial drug containing the same as active ingredient” (Nagoya City University, priority 2006, dated 2011)

What was measured:
[1] = tested on: Mouse mammary tumor FM3A cells; experiment: Evaluation of cytotoxicity; type: cell-based; settings: 37° C., 48 hours, values in FIG. 8 only, stated in words
Description: (2) Evaluation Method of Cytotoxicity (See Hye-Sook Kim; Yasuharu Shibata; Yusuke Wataya; Kaoru Tsuchida; Araki Masuyama; Masatomo Nojima. J. Med. Chem. 1999, 42, 2604-2609)
The concentration of […] (Mouse mammary tumor FM3A cells) is adjusted to 5×10^4 cells/ml, and 5 μl of DMSO solutions of antimalarial drug candidate compounds prepared at various concentrations is added. The cells area cultured at 37° C. for 48 hours and then, the number of surviving cells is counted by the use of microcell counter CC-130 (To a Medical Electric Co.). The measurement results are compared with the results obtained from the control experiment so as to calculate EC50 value.

[2] = tested on: Plasmodium falciparum (ATCC 30932, FCR-3 strain); experiment: Evaluation of antimalarial activity (infected human erythrocytes, Giemsa staining); type: cell-based; settings: 37° C., 72 hours, values in FIG. 8 only, stated in words
Description: Human erythrocyte infected with malaria parasite (Plasmodium falciparum (ATCC 30932, FCR-3 strain)) is prepared on a 24-well culture plate and 5 μl each of DMSO solutions of antimalarial drug candidate compounds prepared at various concentrations is added. Thereafter, the erythrocyte is cultured at 37° C. for 72 hours. A part of the cultured erythrocyte is subjected to Giemsa staining. Then, the number of cells infected with malaria is counted under microscope. EC50 values are calculated based on the measurement values.

antimalarial activity (EC50) [2]: higher antimalarial activity
SMILES: CN(CCNC(=O)C=Cc1c[nH]cn1)CCNc1ccnc2cc(Cl)ccc12 [uro-2Q, N-(2-{[2-(7-Chloro-quinolin-4-ylamino)ethyl]methylamino}ethyl)-3-(1H-imidazol-4-yl)acrylamide]
cytotoxicity (EC50) [1]: lower toxicity as compared with existing drugs
